Where only a bound is given, the exact number is not on record here.

This assay has as its system Plasmodium. Description: Antiplasmodial activity against Plasmodium. Format: functional, organism-based.
On to `FC(F)Oc1ccc(-c2nnc3cncc(OCCc4ccccc4)n23)cc1`, for which it took 170 nM to reach half-maximal inhibition (IC50). For `FC(F)Oc1ccc(-c2nnc3cncc(OCc4ccc5c(c4)OCO5)n23)cc1`, the IC50 (commonly the concentration that gives 50% inhibition) is greater than 10000 nM.

In turn, `Fc1cccc(OCCOc2cncc3nnc(-c4ccc(OC(F)F)cc4)n23)c1` returned an IC50 of 1350 nM. With `FC(F)Oc1ccc(-c2nnc3cncc(OCCCC(F)(F)F)n23)cc1` the figure was 410 nM; with `FC(F)Oc1ccc(-c2nnc3cncc(OCc4ccc(C(F)(F)F)cc4)n23)cc1`, 5270 nM. As for `Fc1cc2c(cc1F)C(COc1cncc3nnc(-c4ccc(OC(F)F)cc4)n13)C2` (stereo not drawn), 480 nM corresponded to half-maximal inhibition (IC50). In turn, `FC(F)Oc1ccc(-c2nnc3cncc(OCc4cc5c(cc4Cl)OCO5)n23)cc1` came in with an IC50 greater than 25000 nM.

`FC(F)Oc1ccc(-c2nnc3cncc(OCc4ccccc4C(F)(F)F)n23)cc1` gave an IC50 of 890 nM.

Take `FC(F)Oc1ccc(-c2nnc3cncc(OCc4cccc(C(F)(F)F)c4)n23)cc1`: the IC50 was determined as 390 nM.

Compound `FC(F)Oc1ccc(-c2nnc3cncc(OCc4csc(C(F)(F)F)c4)n23)cc1` gave an IC50 of 2460 nM.

Compound `FC(F)Oc1ccc(-c2nnc3cncc(OCc4cnccc4C(F)(F)F)n23)cc1` gave an IC50 of 5900 nM. The result for `FC(F)Oc1ccc(-c2nnc3cncc(OCc4cc(OC(F)F)ccn4)n23)cc1` reads 5040 nM; that for `O=[N+]([O-])c1cccc(CCOc2cncc3nnc(-c4ccc(OC(F)F)cc4)n23)c1`, 250 nM; that for `Fc1cccc(F)c1COc1cncc2nnc(-c3ccc(OC(F)F)cc3)n12`, 4080 nM. Regarding `COC(COc1cncc2nnc(-c3ccc(OC(F)F)cc3)n12)c1ccccc1` (stereo not drawn), the IC50 came to 110 nM. Regarding `FC(F)Oc1ccc(-c2nnc3cncc(OCc4ccccc4)n23)cc1`, half-maximal inhibition (IC50) was put at 1120 nM. The compound `FC(F)Oc1ccc(-c2nnc3cncc(OCc4cccc(Br)c4)n23)cc1` returned an IC50 of 670 nM.

For the compound `COC(COc1cncc2nnc(-c3ccc(OC(F)F)cc3)n12)c1ccc(OC(F)F)cc1` (stereo not drawn), 77 nM corresponded to half-maximal inhibition (IC50).

The record behind these values is ChEMBL document CHEMBL5614449, “Open Source Code Contributions to Global Health: The Case of Antimalarial Drug Discovery” (ACS Med Chem Lett, 2024).
